In patent US11464770B2, “Anticancer pharmaceutical composition” (NATIONAL CANCER CENTER, priority 2016, dated 2022):
Where two headings read alike, the source gives them in different places.

Assays:
[1] = tested on: neuroblastoma cell lines; test: Cell based assay, cell viability (CellTiter-Glo), neuroblastoma cell lines; conditions: Homo sapiens; SH-SY5Y cell line
Method: (§1) Commercially available bladder cancer, prostate cancer, lung cancer, breast cancer, blood cancer, pancreatic cancer, colorectal cancer, brain cancer, neuroblastoma, melanoma, liver cancer, cervical carcinoma, ovarian cancer, renal cancer, and papilloma cell lines were each treated with trypsin-EDTA and cultured, followed by being seeded in each well of a 96 well plate. After 24 hours of treatment at constant temperature, the respective cells were treated with the candidate compound so that a final concentration became 0 to 2 μM. The treated cells were additionally cultured for 72 hours, and cell viability was measured by using an ATP detection method (CellTiter-Glo® Luminescent Cell Viability Assay, Promega).

[2] = tested on: pancreatic cancer cell lines (e.g. MIA PaCa-2); test: Cell based assay, cell viability (CellTiter-Glo), pancreatic cancer cell lines; conditions: Homo sapiens
Method: as §1

[3] = tested on: renal cancer cell lines; test: Cell based assay, cell viability (CellTiter-Glo), renal cancer cell lines; conditions: Homo sapiens; ACHN cells
Method: as §1

[4] = pancreatic cancer cell line AsPC-1, 72 hours, read-out: IC50, AsPC-1
[5] = pancreatic cancer cell line BxPC-3, 72 hours, read-out: IC50, BxPC-3
[6] = pancreatic cancer cell line CFPAC-1, 72 hours, read-out: IC50, CFPAC-1
[7] = pancreatic cancer cell line Capan-1, 72 hours, read-out: IC50, Capan-1
[8] = pancreatic cancer cell line Capan-2, 72 hours, read-out: IC50, Capan-2
[9] = pancreatic cancer cell line MIA PaCa-2, 72 hours, read-out: IC50, MIA PaCa-2
[10] = pancreatic cancer cell line PANC-1, 72 hours, read-out: IC50, PANC-1

Structure (SMILES)	IC50 [1]	IC50 [2, 4]	IC50 [2, 5]	IC50 [2, 6]	IC50 [2, 7]	IC50 [2, 8]	IC50 [2, 9]	IC50 [2, 10]	IC50 [3]
CC(=O)c1c([S+](C)[O-])n(Cc2ccc(F)c(Cl)c2)c2c(Br)ccc(Cl)c2c1=O (stereo not drawn) [Compound 22, 3-acetyl-8-bromo-5-chloro-1-(3-chloro-4-fluorobenzyl)-2-(methylsulfinyl)quinolin-4(1H)-one]	> 2000 nM	> 2000 nM	> 2000 nM	> 10000 nM	> 2000 nM	> 2000 nM	> 2000 nM	> 2000 nM	> 2000 nM
CC(=O)c1c([S+]([O-])c2ccccc2)[nH]c2c(Br)ccc(Cl)c2c1=O (stereo not drawn) [Compound 13, 3-acetyl-8-bromo-5-chloro-2-(phenylsulfinyl)quinolin-4(1H)-one]	> 2000 nM	> 2000 nM	> 2000 nM	> 10000 nM	> 2000 nM	> 2000 nM	> 2000 nM	> 2000 nM	> 2000 nM
CC(=O)c1c([S+]([O-])Cc2nonc2C)[nH]c2c(Br)ccc(Cl)c2c1=O (stereo not drawn) [Compound 106, 3-acetyl-8-bromo-5-chloro-2-(((4-methyl-1,2,5-oxadiazol-3-yl)methyl)sulfinyl)quinolin-4(1H)-one]	1290 nM	> 2000 nM	> 2000 nM	> 10000 nM	> 2000 nM	> 2000 nM	> 2000 nM	> 2000 nM	> 2000 nM
CC(=O)c1c([S+]([O-])Cc2ccc(S(F)(F)(F)(F)F)cc2F)[nH]c2c(Br)ccc(Cl)c2c1=O (stereo not drawn) [Compound 69, 3-acetyl-8-bromo-5-chloro-2-((2-fluoro-4-(pentafluoro-16-sulfanyl)benzyl)sulfinyl)quinolin-4(1H)-one]	> 2000 nM	> 2000 nM	> 2000 nM	> 10000 nM	> 2000 nM	> 2000 nM	1370 nM	> 2000 nM	> 2000 nM
CC(=O)c1c(SCc2cccc(I)c2)[nH]c2c(Br)ccc(Cl)c2c1=O [Compound 47, 3-acetyl-8-bromo-5-chloro-2-((3-iodobenzyl)thio)quinolin-4(1H)-one]	> 2000 nM	> 2000 nM	> 2000 nM	> 10000 nM	> 2000 nM	> 2000 nM	> 2000 nM	> 2000 nM	> 2000 nM
CC(=O)c1c(SCc2cccc(F)c2)[nH]c2c(Br)ccc(Cl)c2c1=O [Compound 49, 3-acetyl-8-bromo-5-chloro-2-((3-fluorobenzyl)thio)quinolin-4(1H)-one]	> 2000 nM	> 2000 nM	> 2000 nM	> 10000 nM	> 2000 nM	> 2000 nM	> 2000 nM	> 2000 nM	> 2000 nM
CC(=O)c1c(Sc2ccccc2)[nH]c2c(Br)ccc(Cl)c2c1=O [Compound 12, 3-acetyl-8-bromo-5-chloro-2-(phenylthio)quinolin-4(1H)-one]	> 2000 nM	> 2000 nM	> 2000 nM	> 10000 nM	> 2000 nM	> 2000 nM	> 2000 nM	> 2000 nM	> 2000 nM
Cc1cc(C[S+]([O-])c2[nH]c3c(Br)ccc(Cl)c3c(=O)c2C(=O)C2CC2)no1 (stereo not drawn) [Compound 96, 8-bromo-5-chloro-3-(cyclopropanecarbonyl)-2-(((5-methylisoxazol-3-yl)methyl)sulfinyl)quinolin-4(1H)-one]	770 nM	> 2000 nM	> 2000 nM	> 10000 nM	> 2000 nM	> 2000 nM	1140 nM	> 2000 nM	1670 nM
CC(=O)c1c([S+]([O-])Cc2cccc(I)c2)[nH]c2c(Br)ccc(Cl)c2c1=O (stereo not drawn) [Compound 48, 3-acetyl-8-bromo-5-chloro-2-((3-iodobenzyl)sulfinyl)quinolin-4(1H)-one]	> 2000 nM	> 2000 nM	> 2000 nM	> 10000 nM	> 2000 nM	> 2000 nM	> 2000 nM	> 2000 nM	> 2000 nM
CC(=O)c1c(S/C=C\C(=O)O)[nH]c2c(Br)ccc(Cl)c2c1=O [Compound 67, (Z)-3-((3-acetyl-8-bromo-5-chloro-4-oxo-1,4-dihydroquinolin-2-yl)thio)acrylic acid]	> 2000 nM	> 2000 nM	> 2000 nM	> 10000 nM	> 2000 nM	> 2000 nM	> 2000 nM	> 2000 nM	> 2000 nM
CC(=O)c1c([S+]([O-])Cc2ccc(N)nc2)[nH]c2c(Br)ccc(Cl)c2c1=O (stereo not drawn) [Compound 100, 3-acetyl-2-(((6-aminopyridin-3-yl)methyl)sulfinyl)-8-bromo-5-chloroquinolin-4(1H)-one]	> 2000 nM	> 2000 nM	> 2000 nM	> 10000 nM	> 2000 nM	> 2000 nM	> 2000 nM	> 2000 nM	> 2000 nM
COc1ccccc1Sc1[nH]c2c(Br)ccc(Cl)c2c(=O)c1C(C)=O [Compound 14, 3-acetyl-8-bromo-5-chloro-2-((2-methoxyphenyl)thio)quinolin-4(1H)-one]	> 2000 nM	> 2000 nM	> 2000 nM	> 10000 nM	> 2000 nM	> 2000 nM	> 2000 nM	> 2000 nM	> 2000 nM
CSc1c(C(C)=O)c(=O)c2cc(F)ccc2n1C [Compound 7, 3-acetyl-6-fluoro-1-methyl-2-(methylthio)quinolin-4(1H)-one]	> 2000 nM	> 2000 nM	> 2000 nM	> 10000 nM	> 2000 nM	> 2000 nM	> 2000 nM	> 2000 nM	> 2000 nM
CC(=O)c1c(S(C)(=O)=O)n(S(=O)(=O)c2ccc(C(C)(C)C)cc2)c2c(Br)ccc(Cl)c2c1=O [Compound 41, 3-acetyl-8-bromo-1-((4-(tert-butyl)phenyl)sulfonyl)-5-chloro-2-(methylsulfonyl)quinolin-4(1H)-one]	> 2000 nM	> 2000 nM	> 2000 nM	> 10000 nM	> 2000 nM	> 2000 nM	> 2000 nM	> 2000 nM	> 2000 nM
CSc1[nH]c2c(Br)ccc(Cl)c2c(=O)c1C(C)=O [Compound 2, 3-acetyl-8-bromo-5-chloro-2-(methylthio)quinolin-4(1H)-one]	> 2000 nM	> 2000 nM	> 2000 nM	> 10000 nM	> 2000 nM	> 2000 nM	> 2000 nM	> 2000 nM	> 2000 nM
CC(=O)c1c(S(=O)(=O)Cc2ccccc2)nc2c(Br)ccc(Cl)c2c1O [Compound 54, 1-(2-(benzylsulfonyl)-8-bromo-5-chloro-4-hydroxyquinolin-3-yl)ethan-1-one]	> 2000 nM	> 2000 nM	> 2000 nM	> 10000 nM	> 2000 nM	> 2000 nM	> 2000 nM	> 2000 nM	> 2000 nM
CSc1c(C(C)=O)c(=O)c2c(Cl)ccc(Br)c2n1S(C)(=O)=O [Compound 35, 3-acetyl-8-bromo-5-chloro-1-(methylsulfonyl)-2-(methylthio)quinolin-4(1H)-one]	> 2000 nM	> 2000 nM	> 2000 nM	> 10000 nM	> 2000 nM	> 2000 nM	> 2000 nM	> 2000 nM	> 2000 nM
CC(=O)c1c([S+]([O-])Cc2ccccc2)nc2c(Br)ccc(Cl)c2c1O (stereo not drawn) [Compound 53, 1-(2-(benzylsulfinyl)-8-bromo-5-chloro-4-hydroxyquinolin-3-yl)ethan-1-one]	> 2000 nM	> 2000 nM	> 2000 nM	> 10000 nM	> 2000 nM	> 2000 nM	> 2000 nM	> 2000 nM	> 2000 nM
CC(=O)c1c([S+]([O-])CC#N)[nH]c2c(Br)ccc(Cl)c2c1=O (stereo not drawn) [Compound 65, 2-((3-acetyl-8-bromo-5-chloro-4-oxo-1,4-dihydroquinolin-2-yl)sulfinyl)acetonitrile]	> 2000 nM	> 2000 nM	> 2000 nM	> 10000 nM	> 2000 nM	> 2000 nM	> 2000 nM	> 2000 nM	> 2000 nM
